# In PubChem BioAssay (NCI):
# “And” between values parts separate entries of the source, which are not always exact repeats. Equal entries are not always repeated.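 Interpolation was linear, between the two tested concentrations surrounding the appropriate level; five concentrations were tested over 48 hours in 96-well plates. GI50 = concentration required for 50% inhibition of growth. The concentration for full growth arrest is given as TGI.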
# System: COLO 205 colon
# Assay: growth of human tumour cells (NCI), 48 h
SMILES,GI50 [µM],TGI [µM]
CN(C)CC[PH+](c1ccccc1)c1ccccc1.CN(C)CC[PH+](c1ccccc1)c1ccccc1.[Cl-].[Pd+2],80.2,> 100
COc1cc(NCc2ccc3nc(N)nc(N)c3c2C)cc(OC)c1OC (tested in a mixture with another compound),–,45.1
O=C(c1ccccc1)c1cc2ccccc2o1,> 100,> 100
O=C(Nc1ccncc1)C(=O)c1cn(S(=O)(=O)c2ccc(F)cc2)c2ccccc12,24.7,> 100
C=C(C)[C@@H]1CC[C@]2(C)[C@H](CC=C3[C@@H]4CC(C)(C)CC[C@]4(C(N)=O)CC[C@]32C)[C@@]1(C)CCC#N,2.6,7.36
O=C(c1ccccc1Br)C(F)(F)F,–,> 100
CO/N=C(\COc1ccc2c(c1)oc(=O)c1cc(OC)ccc12)c1ccc(OC)cc1,> 100,> 100
COc1ccc(NC(=O)/C(Cc2cc(=O)oc3cc(O)ccc23)=N\NC(C)(C)C)c(OC)c1,–,> 100
O=C1/C(=C/c2ccc3c(c2)OCO3)SC2C=Nc3ccccc3N12 (stereo not drawn),–,> 100
CCOc1ccc(NC(=O)C(=O)CC(=O)c2c(C)n([O-])c3ccccc3[n+]2=O)cc1,–,> 100
Clc1ccc2[nH]cc(-c3nnnn3-c3ccccc3)c2c1,23.1,> 57.8
CCCC(=O)Nc1cc2c3c(c1)CCCN3CCC2,–,> 10
Cc1cc(Cl)ccc1NC(=O)C(=O)Cc1nc2ccccc2o1,–,> 100
OCC1OC(c2nc(C3=NCCCN3)cs2)C(O)C1O (stereo not drawn),–,> 100
COc1cc(-c2cc(-c3cc4c([nH]c5ccccc54)c(-c4cc(OC)c(OC)c(OC)c4)n3)cc(-c3ccccc3)n2)cc(OC)c1OC,4.11,21.9
O=C1C=CC(=O)c2cc3cc(CBr)ccc3cc21,4.19,28.7
CCC(C)COC(=O)c1ccc(N=Cc2ccc(C=Nc3ccc(C(=O)OCC(C)CC)cc3)cc2)cc1 (stereo not drawn),–,> 100
Cc1cc(N(CCC#N)CCC#N)ccc1N=Nc1ccc(C(=O)O)cc1,–,> 100

SMILES,GI50 [µM],TGI [µM]
CN(C)CC1CCCC/C1=N/OC(=O)c1ccc(Cl)cc1 (stereo not drawn),–,> 100
N#CC(C(=O)C(=O)C(C#N)c1ccc(Br)cc1)c1ccc(Br)cc1 (stereo not drawn),–,31.4
COc1cccc(C2=NC(C(C)C)CO2)c1 (stereo not drawn),–,> 100
CCOC(=O)C(=[N+]=[N-])[Si](C)(C)C,–,> 100
CCCN1C(=O)N(CCC)C2C1NC(=S)N2/N=C/C=C/c1ccccc1OC (stereo not drawn),0.52,9.09
O=C(CCc1n[nH]c(=S)o1)Nc1ccccc1C(F)(F)F,–,> 100
COc1cc2c(cc1OCCCNC(=O)c1cccc3c(=O)c4ccccc4[nH]c13)N=C[C@@H]1CCCN1C2=O,< 0.01,0.0437
Cc1ccc(NC(=O)CCc2cc(C(C)(C)C)nc(=S)[nH]2)cc1C,–,> 100
Cc1[nH]c2ccccc2c1C(=O)/C=C/c1ccccc1O,–,> 100
O=C(Nc1nc(=S)c2c(ncn2CCOC(=O)c2ccccc2)[nH]1)c1ccccc1,–,> 100
COc1ccc(CC2NCCc3c2[nH]c2ccccc32)cc1 (stereo not drawn),–,40.6
CCOc1ccc(NC(=O)CC#N)cc1,–,> 100
O=C(/C=C/c1cccc2ccccc12)c1ccccc1Cl,–,> 100
COc1ccc2c(c1)C(=O)c1c-2c(N2CCN(C(=O)CNCCNCCO)CC2)nc2ccccc12,2.17,4.19
Cc1ccc(/C=C/C(=O)c2sc(-c3nc(C)c(C(=O)/C=C/c4ccc(C)cc4)s3)nc2C)cc1,–,> 100
CCC[CH2][Sn]([Cl])([CH2]CCC)[CH2]CCC,0.134,0.278
C1CN2CCN3CCN4CCN1[P+]243,–,> 100

# System: RXF 393 renal
# Assay: growth of human tumour cells (NCI), 48 h
SMILES,TGI [µM],GI50 [µM]
COc1cc(NCc2ccc3nc(N)nc(N)c3c2C)cc(OC)c1OC (tested in a mixture with another compound),27.5,–
O=C(c1ccccc1)c1cc2ccccc2o1,> 100,88
O=C(Nc1ccncc1)C(=O)c1cn(S(=O)(=O)c2ccc(F)cc2)c2ccccc12,8.72,2.6
C=C(C)[C@@H]1CC[C@]2(C)[C@H](CC=C3[C@@H]4CC(C)(C)CC[C@]4(C(N)=O)CC[C@]32C)[C@@]1(C)CCC#N,5.11,2.34
CO/N=C(\COc1ccc2c(c1)oc(=O)c1cc(OC)ccc12)c1ccc(OC)cc1,> 100,> 100
O=C1/C(=C/c2ccc3c(c2)OCO3)SC2C=Nc3ccccc3N12 (stereo not drawn),> 100,–
CCOc1ccc(NC(=O)C(=O)CC(=O)c2c(C)n([O-])c3ccccc3[n+]2=O)cc1,> 100,–
Clc1ccc2[nH]cc(-c3nnnn3-c3ccccc3)c2c1,> 100,32.2
Cc1cc(Cl)ccc1NC(=O)C(=O)Cc1nc2ccccc2o1,> 100,–
COc1cc(-c2cc(-c3cc4c([nH]c5ccccc54)c(-c4cc(OC)c(OC)c(OC)c4)n3)cc(-c3ccccc3)n2)cc(OC)c1OC,12.2,2.7
O=C1C=CC(=O)c2cc3cc(CBr)ccc3cc21,27.9,11
CCC(C)COC(=O)c1ccc(N=Cc2ccc(C=Nc3ccc(C(=O)OCC(C)CC)cc3)cc2)cc1 (stereo not drawn),> 100,–
Cc1cc(N(CCC#N)CCC#N)ccc1N=Nc1ccc(C(=O)O)cc1,> 100,–
CN(C)CC1CCCC/C1=N/OC(=O)c1ccc(Cl)cc1 (stereo not drawn),> 100,–
N#CC(C(=O)C(=O)C(C#N)c1ccc(Br)cc1)c1ccc(Br)cc1 (stereo not drawn),9.01,–
COc1cccc(C2=NC(C(C)C)CO2)c1 (stereo not drawn),> 100,–
CCOC(=O)C(=[N+]=[N-])[Si](C)(C)C,> 100,–
CCCc1nc(NC#N)nc(C(=O)Nc2ccccc2)c1CC,> 100,–
CCCN1C(=O)N(CCC)C2C1NC(=S)N2/N=C/C=C/c1ccccc1OC (stereo not drawn),85.9,0.484
COc1cc2c(cc1OCCCNC(=O)c1cccc3c(=O)c4ccccc4[nH]c13)N=C[C@@H]1CCCN1C2=O,0.301,0.0865
Cc1ccc(NC(=O)CCc2cc(C(C)(C)C)nc(=S)[nH]2)cc1C,> 100,–
Cc1[nH]c2ccccc2c1C(=O)/C=C/c1ccccc1O,> 100,–
O=C(Nc1nc(=S)c2c(ncn2CCOC(=O)c2ccccc2)[nH]1)c1ccccc1,59.2,–
CCOc1ccc(NC(=O)CC#N)cc1,> 100,–
O=C(/C=C/c1cccc2ccccc12)c1ccccc1Cl,32.4,–
Cc1ccc(/C=C/C(=O)c2sc(-c3nc(C)c(C(=O)/C=C/c4ccc(C)cc4)s3)nc2C)cc1,> 100,–
O=C1/C(=C/c2ccc(Cl)cc2)CCC1CCN1CCOCC1 (stereo not drawn),> 100,–
C1CN2CCN3CCN4CCN1[P+]243,> 100,–

# System: HL-60(TB) leukemia
# Assay: growth of human tumour cells (NCI), 48 h
SMILES,GI50 [µM],TGI
CN(C)CC[PH+](c1ccccc1)c1ccccc1.CN(C)CC[PH+](c1ccccc1)c1ccccc1.[Cl-].[Pd+2],> 100,> 100 µM
COc1cc(NCc2ccc3nc(N)nc(N)c3c2C)cc(OC)c1OC (tested in a mixture with another compound),0.000746,29.4 µM and 26.3 µM
O=C(c1ccccc1Br)C(F)(F)F,–,> 100 µM
COc1ccc(NC(=O)/C(Cc2cc(=O)oc3cc(O)ccc23)=N\NC(C)(C)C)c(OC)c1,–,> 100 µM
CCOc1ccc(NC(=O)C(=O)CC(=O)c2c(C)n([O-])c3ccccc3[n+]2=O)cc1,–,> 100 µM
CCCC(=O)Nc1cc2c3c(c1)CCCN3CCC2,–,> 10 µM
Cc1cc(Cl)ccc1NC(=O)C(=O)Cc1nc2ccccc2o1,–,> 100 µM
OCC1OC(c2nc(C3=NCCCN3)cs2)C(O)C1O (stereo not drawn),–,> 100 µM
COc1cc(-c2cc(-c3cc4c([nH]c5ccccc54)c(-c4cc(OC)c(OC)c(OC)c4)n3)cc(-c3ccccc3)n2)cc(OC)c1OC,3.09,11.3 µM
O=C1C=CC(=O)c2cc3cc(CBr)ccc3cc21,–,0.2 µM
CCC(C)COC(=O)c1ccc(N=Cc2ccc(C=Nc3ccc(C(=O)OCC(C)CC)cc3)cc2)cc1 (stereo not drawn),–,> 100 µM
CN(C)CC1CCCC/C1=N/OC(=O)c1ccc(Cl)cc1 (stereo not drawn),–,> 100 µM
N#CC(C(=O)C(=O)C(C#N)c1ccc(Br)cc1)c1ccc(Br)cc1 (stereo not drawn),–,20.6 µM
COc1cccc(C2=NC(C(C)C)CO2)c1 (stereo not drawn),–,> 100 µM
CCOC(=O)Nc1ccc(-c2nc(-c3cccc(OCCN4CCOCC4)c3)c(-c3ccnc(Br)c3)[nH]2)cc1,2.15,5.39 µM
CCCc1nc(NC#N)nc(C(=O)Nc2ccccc2)c1CC,–,> 100 µM
CCCN1C(=O)N(CCC)C2C1NC(=S)N2/N=C/C=C/c1ccccc1OC (stereo not drawn),0.337,1.71 µM
O=C(CCc1n[nH]c(=S)o1)Nc1ccccc1C(F)(F)F,–,> 100 µM
COc1cc2c(cc1OCCCNC(=O)c1cccc3c(=O)c4ccccc4[nH]c13)N=C[C@@H]1CCCN1C2=O,–,> 77 µM
